Laboratory results published in ChEMBL document CHEMBL3885861, “Open TG-GATES”.

Species on record: Rattus norvegicus
Experiment: Open TG-GATES - Regimen: Single
Assay type: toxicity, organism-based, Sprague-Dawley
Set-up: regimen Single, gender Male, age 6 weeks
Conditions: in vivo, ip, 0 mg/kg, route intraperitoneal injection, dose 0 ug/Kg, dose level Control; for APTT / Bas / Eos / Fbg / Hb / Ht / Lym / MCH / MCHC / MCV / Mono / Neu / PT / Plat / RBC / Ret / WBC: tissue Blood; for KIDNEY_L / KIDNEY_R / KIDNEY_TOTAL: tissue Kidney; for LIVER: tissue Liver; for A/G / ALP / ALT / AST / BUN / CRE / Ca / Cl / DBIL / GLC / IP / K / LDH / Na / PL / RALB / TBIL / TC / TG / TP / gamma-GTP: tissue Plasma

Substance: H-KGDRLS-OH [TNF-ALPHA]
- TERMINAL_BW (3 h): 200.6 g
- APTT (3 h): 20 s
- Bas (3 h): 0.4%
- Eos (3 h): 0.8%
- Fbg (3 h): 268.8 mg/dL
- Hb (3 h): 13 g/dL
- Ht (3 h): 40.3%
- Lym (3 h): 73.8%
- MCH (3 h): 21.6 pg
- MCHC (3 h): 32.3%
- MCV (3 h): 66.8 fL
- Mono (3 h): 3.8%
- Neu (3 h): 19.8%
- PT (3 h): 15.4 s
- Plat (3 h): 101.9 x10_4/uL
- RBC (3 h): 603.2 x10_4/ul
- Ret (3 h): 9.3%
- WBC (3 h): 95.8 x10_2/uL
- KIDNEY_L (3 h): 0.9 g
- KIDNEY_R (3 h): 0.9 g
- KIDNEY_TOTAL (3 h): 1.7 g
- LIVER (3 h): 9.3 g
- A/G (3 h): 0.9
- ALP (3 h): 1391 IU/L
- ALT (3 h): 43 IU/L
- AST (3 h): 74.8 IU/L
- BUN (3 h): 10.8 mg/dL
- CRE (3 h): 0.2 mg/dL
- Ca (3 h): 10.8 mg/dL
- Cl (3 h): 105.2 meq/L
- DBIL (3 h): 0.012 mg/dL
- GLC (3 h): 173.4 mg/dL
- IP (3 h): 9.6 mg/dL
- K (3 h): 4.1 meq/L
- LDH (3 h): 73.2 IU/L
- Na (3 h): 142.2 meq/L
- PL (3 h): 149.2 mg/dL
- RALB (3 h): 2.4 g/dL
- TBIL (3 h): 0.06 mg/dL
- TC (3 h): 79.8 mg/dL
- TG (3 h): 61.2 mg/dL
- TP (3 h): 5.3 g/dL
- gamma-GTP (3 h): 1.2 IU/L
- TERMINAL_BW (6 h): 199.4 g
- APTT (6 h): 16.7 s
- Bas (6 h): 0%
- Eos (6 h): 0.2%
- Fbg (6 h): 285 mg/dL
- Hb (6 h): 13.1 g/dL
- Ht (6 h): 40%
- Lym (6 h): 68.8%
- MCH (6 h): 21.3 pg
- MCHC (6 h): 32.6%
- MCV (6 h): 65.1 fL
- Mono (6 h): 2.8%
- Neu (6 h): 26.8%
- PT (6 h): 15.6 s
- Plat (6 h): 109.7 x10_4/uL
- RBC (6 h): 615.4 x10_4/ul
- Ret (6 h): 8.8%
- WBC (6 h): 77.4 x10_2/uL
- KIDNEY_L (6 h): 0.9 g
- KIDNEY_R (6 h): 0.9 g
- KIDNEY_TOTAL (6 h): 1.9 g
- LIVER (6 h): 8.5 g
- A/G (6 h): 0.9
- ALP (6 h): 1347.2 IU/L
- ALT (6 h): 40 IU/L
- AST (6 h): 73.6 IU/L
- BUN (6 h): 9.4 mg/dL
- CRE (6 h): 0.2 mg/dL
- Ca (6 h): 10.8 mg/dL
- Cl (6 h): 105 meq/L
- DBIL (6 h): 0.01 mg/dL
- GLC (6 h): 179.6 mg/dL
- IP (6 h): 10.1 mg/dL
- K (6 h): 4 meq/L
- LDH (6 h): 58.8 IU/L
- Na (6 h): 142.8 meq/L
- PL (6 h): 146.4 mg/dL
- RALB (6 h): 2.5 g/dL
- TBIL (6 h): 0.058 mg/dL
- TC (6 h): 78.8 mg/dL
- TG (6 h): 44 mg/dL
- TP (6 h): 5.3 g/dL
- gamma-GTP (6 h): 1.4 IU/L
- TERMINAL_BW (9 h): 195.6 g
- APTT (9 h): 18 s
- Bas (9 h): 0.4%
- Eos (9 h): 0.4%
- Fbg (9 h): 305 mg/dL
- Hb (9 h): 13.1 g/dL
- Ht (9 h): 40.5%
- Lym (9 h): 68.4%
- MCH (9 h): 20.9 pg
- MCHC (9 h): 32.5%
- MCV (9 h): 64.2 fL
- Mono (9 h): 1.6%
- Neu (9 h): 28.6%
- PT (9 h): 15.4 s
- Plat (9 h): 118.6 x10_4/uL
- RBC (9 h): 631 x10_4/ul
- Ret (9 h): 8.6%
- WBC (9 h): 77.2 x10_2/uL
- KIDNEY_L (9 h): 0.9 g
- KIDNEY_R (9 h): 0.9 g
- KIDNEY_TOTAL (9 h): 1.9 g
- LIVER (9 h): 8.2 g
- A/G (9 h): 0.9
- ALP (9 h): 1246.8 IU/L
- ALT (9 h): 42.6 IU/L
- AST (9 h): 81.6 IU/L
- BUN (9 h): 7.6 mg/dL
- CRE (9 h): 0.1 mg/dL
- Ca (9 h): 10.4 mg/dL
- Cl (9 h): 105.4 meq/L
- DBIL (9 h): 0.004 mg/dL
- GLC (9 h): 167.4 mg/dL
- IP (9 h): 9.9 mg/dL
- K (9 h): 3.5 meq/L
- LDH (9 h): 61.4 IU/L
- Na (9 h): 143.4 meq/L
- PL (9 h): 135.8 mg/dL
- RALB (9 h): 2.5 g/dL
- TBIL (9 h): 0.058 mg/dL
- TC (9 h): 74 mg/dL
- TG (9 h): 33.6 mg/dL
- TP (9 h): 5.4 g/dL
- gamma-GTP (9 h): 1.2 IU/L
- TERMINAL_BW (24 h): 211.3 g
- APTT (24 h): 17.6 s
- Bas (24 h): 0%
- Eos (24 h): 1%
- Fbg (24 h): 302 mg/dL
- Hb (24 h): 13.3 g/dL
- Ht (24 h): 40.5%
- Lym (24 h): 78%
- MCH (24 h): 21 pg
- MCHC (24 h): 32.8%
- MCV (24 h): 64 fL
- Mono (24 h): 2.8%
- Neu (24 h): 17%
- PT (24 h): 15.1 s
- Plat (24 h): 115.6 x10_4/uL
- RBC (24 h): 634 x10_4/ul
- Ret (24 h): 8.1%
- WBC (24 h): 80.3 x10_2/uL
- KIDNEY_L (24 h): 0.9 g
- KIDNEY_R (24 h): 0.9 g
- KIDNEY_TOTAL (24 h): 1.8 g
- LIVER (24 h): 10.2 g
- A/G (24 h): 0.8
- ALP (24 h): 1555.2 IU/L
- ALT (24 h): 49 IU/L
- AST (24 h): 69.8 IU/L
- BUN (24 h): 14.8 mg/dL
- CRE (24 h): 0.2 mg/dL
- Ca (24 h): 11 mg/dL
- Cl (24 h): 105.8 meq/L
- DBIL (24 h): 0.008 mg/dL
- GLC (24 h): 184.2 mg/dL
- IP (24 h): 9.1 mg/dL
- K (24 h): 4.2 meq/L
- LDH (24 h): 76.2 IU/L
- Na (24 h): 142 meq/L
- PL (24 h): 172.2 mg/dL
- RALB (24 h): 2.6 g/dL
- TBIL (24 h): 0.038 mg/dL
- TC (24 h): 93.2 mg/dL
- TG (24 h): 98.2 mg/dL
- TP (24 h): 5.6 g/dL
- gamma-GTP (24 h): 1 IU/L
